Data taken from patent US20260176320A1, “MODULATORS OF G-PROTEIN COUPLED RECEPTORS” (priority 2018, published 2026).
Where two headings read alike, the source gives them in different places. Square brackets hold non-standard residues; d marks the D form. Peptide text beside a SMILES is read from it. * marks the point of attachment. X3 = O=C(CSCC(=O)*)NCCn1ccccc1=O; Aib = CC(C)(N)C(=O)O

What was measured:
Format in all cases: cell-based
GLP-1R [1] = target: T1, GLP-1R (Homo sapiens, UniProt P43220); assay: PathHunter β-arrestin assay
T1 sequence (P43220 24-463): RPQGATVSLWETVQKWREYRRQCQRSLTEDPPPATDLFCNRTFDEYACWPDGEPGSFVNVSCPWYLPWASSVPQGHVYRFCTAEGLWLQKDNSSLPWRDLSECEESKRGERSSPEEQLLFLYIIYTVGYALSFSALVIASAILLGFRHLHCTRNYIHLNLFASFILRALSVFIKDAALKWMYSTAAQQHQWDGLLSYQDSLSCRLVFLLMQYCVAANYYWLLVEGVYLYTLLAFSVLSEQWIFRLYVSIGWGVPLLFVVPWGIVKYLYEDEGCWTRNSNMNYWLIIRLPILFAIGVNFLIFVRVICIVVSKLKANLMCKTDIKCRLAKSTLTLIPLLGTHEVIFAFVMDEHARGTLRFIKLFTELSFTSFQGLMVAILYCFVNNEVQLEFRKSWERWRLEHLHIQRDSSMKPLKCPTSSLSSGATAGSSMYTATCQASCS
In short: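 Following a 90 min agonist exposure at 37 °C in 0.2% BSA medium, β-arrestin coupling was detected by chemiluminescence after 3 h at room temperature.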

GIP-R = target: T2, GIP-R (Homo sapiens, UniProt P48546); assay: HitHunter cAMP assay (GIP-R); details: cAMP; for Emax: read-out: (Emax) GIP-R
T2 sequence (P48546 22-466): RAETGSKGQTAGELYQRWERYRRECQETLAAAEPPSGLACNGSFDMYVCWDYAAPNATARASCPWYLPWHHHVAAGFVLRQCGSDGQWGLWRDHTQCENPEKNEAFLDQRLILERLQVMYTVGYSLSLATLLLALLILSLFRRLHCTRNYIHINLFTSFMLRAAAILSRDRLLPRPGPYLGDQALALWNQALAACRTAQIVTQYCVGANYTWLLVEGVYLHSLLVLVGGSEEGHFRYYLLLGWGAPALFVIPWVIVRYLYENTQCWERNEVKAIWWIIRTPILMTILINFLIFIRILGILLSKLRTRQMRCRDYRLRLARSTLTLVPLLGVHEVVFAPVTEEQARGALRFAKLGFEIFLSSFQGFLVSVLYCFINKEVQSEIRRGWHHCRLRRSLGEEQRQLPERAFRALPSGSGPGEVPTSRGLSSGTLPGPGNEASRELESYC
In short: (§1)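 Duplicate 22-point, 2-fold agonist titrations applied to receptor-expressing suspension cells in IBMX-containing HBSS; 30 min RT stimulation. Read: luminescent cAMP immunocompetition after O/N dark incubation.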

GLP-1R [2] = target: T1, GLP-1R; assay: HitHunter cAMP assay (GLP-1R); details: cAMP; for Emax: read-out: (Emax) GLP-1R
In short: as §1

[3] = PathHunter β-arrestin assay, read-out: β-arrestin activity EC50
[4] = Table 3, read-out: EC50 GIP-R/nM
[5] = Table 3A, read-out: EC50 GIP-R/nM
[6] = Table 3, read-out: EC50 GLP-1R/nM
[7] = Table 3A, read-out: EC50 GLP-1R/nM

Row | SMILES | EC50 (GLP-1R [1]) [nM] | EC50 (GIP-R; EC50 GIP-R/nM, Table 3) [nM] | EC50 (GIP-R; EC50 GIP-R/nM, Table 3A) [nM] | Emax (GIP-R; Table 3) [%] | Emax (GIP-R; Table 3A) [%] | EC50 (GLP-1R [2]; EC50 GLP-1R/nM, Table 3) [nM] | EC50 (GLP-1R [2]; EC50 GLP-1R/nM, Table 3A) [nM] | Emax (GLP-1R [2]; Table 3) [%] | Emax (GLP-1R [2]; Table 3A) [%] | EC50 (GLP-1R [1]; [3]) [nM] | EC50 (GIP-R; [4]) [nM] | EC50 (GIP-R; [5]) [nM] | EC50 (GLP-1R [2]; [6]) [nM] | EC50 (GLP-1R [2]; [7]) [nM]
1 | CC[C@H](C)[C@H](NC(=O)[C@H](CO)NC(=O)[C@H](Cc1ccc(O)cc1)NC(=O)[C@H](CC(=O)O)NC(=O)[C@H](CO)NC(=O)[C@@H](NC(=O)[C@H](Cc1ccccc1)NC(=O)[C@@H](NC(=O)CNC(=O)[C@H](CCC(=O)O)NC(=O)C(C)(C)C(=O)NCCn1ncc2ccccc2c1=O)[C@@H](C)O)[C@@H](C)O)C(=O)N[C@@H](Cc1ccc(O)cc1)C(=O)N[C@@H](CC(C)C)C(=O)N[C@@H](CC(=O)O)C(=O)N[C@@H](CCCCN)C(=O)N[C@@H](CCC(N)=O)C(=O)N[C@@H](C)C(=O)N[C@@H](C)C(=O)NC(C)(C)C(=O)N[C@@H](CCC(=O)O)C(=O)N[C@@H](Cc1ccccc1)C(=O)N[C@H](C(=O)N[C@@H](CC(N)=O)C(=O)N[C@@H](Cc1c[nH]c2ccccc12)C(=O)N[C@@H](CC(C)C)C(=O)N[C@@H](CC(C)C)C(=O)N[C@@H](C)C(=O)NCC(=O)NCC(=O)N1CCC[C@H]1C(=O)N[C@@H](CO)C(=O)N[C@@H](CO)C(=O)NCC(=O)N[C@@H](C)C(=O)N1CCC[C@H]1C(=O)N1CCC[C@H]1C(=O)N1CCC[C@H]1C(=O)N[C@@H](CO)C(=O)N[C@@H](CCCCN)C(N)=O)C(C)C [Compound 116] | > 1000 | 10 to 100 | 10 to 100 | 50 | 50 | < 0.1 | < 0.1 | 98 | 98 | – | – | – | – | –
2 | CC[C@H](C)[C@H](NC(=O)[C@H](CO)NC(=O)[C@H](Cc1ccc(O)cc1)NC(=O)[C@H](CC(=O)O)NC(=O)[C@H](CO)NC(=O)[C@@H](NC(=O)[C@H](Cc1ccccc1)NC(=O)[C@@H](NC(=O)CNC(=O)[C@H](CCC(=O)O)NC(=O)CSCC(=O)NCCn1ccccc1=O)[C@@H](C)O)[C@@H](C)O)C(=O)N[C@@H](Cc1ccc(O)cc1)C(=O)N[C@@H](CC(C)C)C(=O)N[C@@H](CC(=O)O)C(=O)N[C@@H](CCCCN)C(=O)N[C@@H](CCC(N)=O)C(=O)N[C@@H](C)C(=O)N[C@@H](C)C(=O)NC(C)(C)C(=O)N[C@@H](CCC(=O)O)C(=O)N[C@@H](Cc1ccccc1)C(=O)N[C@H](C(=O)N[C@@H](CC(N)=O)C(=O)N[C@@H](Cc1c[nH]c2ccccc12)C(=O)N[C@@H](CC(C)C)C(=O)N[C@@H](CC(C)C)C(=O)N[C@@H](C)C(=O)NCC(=O)NCC(=O)N1CCC[C@H]1C(=O)N[C@@H](CO)C(=O)N[C@@H](CO)C(=O)NCC(=O)N[C@@H](C)C(=O)N1CCC[C@H]1C(=O)N1CCC[C@H]1C(=O)N1CCC[C@H]1C(=O)N[C@@H](CO)C(=O)N[C@@H](CCCCN)C(N)=O)[C@@H](C)CC [Compound 118] (X3-EGTFTSDYSIYLDKQAA[Aib]EFINWLLAGGPSSGAPPPSK-NH2) | – | – | – | 35 | 35 | – | – | 95 | 95 | > 1000 | 1 to 10 | 1 to 10 | < 0.1 | < 0.1
3 | CC[C@H](C)[C@H](NC(=O)[C@H](CO)NC(=O)[C@H](Cc1ccc(O)cc1)NC(=O)[C@H](CC(=O)O)NC(=O)[C@H](CO)NC(=O)[C@@H](NC(=O)[C@H](Cc1ccccc1)NC(=O)[C@@H](NC(=O)CNC(=O)[C@H](CCC(=O)O)NC(=O)C1(C(=O)NCCN2C(=O)CSC2=O)CCCCC1)[C@@H](C)O)[C@@H](C)O)C(=O)N[C@@H](Cc1ccc(O)cc1)C(=O)N[C@@H](CC(C)C)C(=O)N[C@@H](CC(=O)O)C(=O)N[C@@H](CCCCN)C(=O)N[C@@H](CCC(N)=O)C(=O)N[C@@H](C)C(=O)N[C@@H](C)C(=O)NC(C)(C)C(=O)N[C@@H](CCC(=O)O)C(=O)N[C@@H](Cc1ccccc1)C(=O)N[C@H](C(=O)N[C@@H](CC(N)=O)C(=O)N[C@@H](Cc1c[nH]c2ccccc12)C(=O)N[C@@H](CC(C)C)C(=O)N[C@@H](CC(C)C)C(=O)N[C@@H](C)C(=O)NCC(=O)NCC(=O)N1CCC[C@H]1C(=O)N[C@@H](CO)C(=O)N[C@@H](CO)C(=O)NCC(=O)N[C@@H](C)C(=O)N1CCC[C@H]1C(=O)N1CCC[C@H]1C(=O)N1CCC[C@H]1C(=O)N[C@@H](CO)C(=O)N[C@@H](CCCCN)C(N)=O)C(C)C [Compound 119] | – | – | – | 41 | 41 | – | – | 97 | 97 | < 10 | 1 to 10 | 10 to 100 | < 0.1 | < 0.1
